According to ChEMBL document CHEMBL6182905, “Fluorinated sulfonamide-flavonoid derivatives as novel Keap1-Nrf2 inhibitors: Potent induction of cytoprotective gene HO-1 in vivo” (Eur J Med Chem, 2025):
Activity calls are given as the source filed them. The calls are words filed in the database; no cut-off is given here.

Experiments:
Mus musculus [1] = assay: Anti-inflammatory activity in APAP-induced C57BL/6 mouse model of acute liver injury assessed as reduction in neutrophil invasion in liver at 12.5 to 25 mg/kg, ip measured after 12 hrs by immunohistochemical staining based analysis; assay type: functional, organism-based; conditions: dose 12.5-25 mg/kg
Mus musculus [2] = assay: Anti-inflammatory activity in APAP-induced Nrf2 knockout male C57BL/6 mouse model of acute liver injury assessed as increase in F4/80 positive cells in liver at 25 mg/kg, ip preadministered with compound followed by APAP induction and measured after 12 hrs by staining based analysis; assay type: functional, organism-based
[3] = biological target: T1, Nuclear factor erythroid 2-related factor 2 (Mus musculus) (UniProt Q60795); assay: Activation of Nrf2 in LPS-stimulated mouse AML12 cells assessed as upregulation of Akr1c1 mRNA expression incubated for 16 hrs by RT-qPCR analysis; assay type: cell-based; conditions: filed as activator, dose 0.5-10 µM
T1 sequence (whole entry): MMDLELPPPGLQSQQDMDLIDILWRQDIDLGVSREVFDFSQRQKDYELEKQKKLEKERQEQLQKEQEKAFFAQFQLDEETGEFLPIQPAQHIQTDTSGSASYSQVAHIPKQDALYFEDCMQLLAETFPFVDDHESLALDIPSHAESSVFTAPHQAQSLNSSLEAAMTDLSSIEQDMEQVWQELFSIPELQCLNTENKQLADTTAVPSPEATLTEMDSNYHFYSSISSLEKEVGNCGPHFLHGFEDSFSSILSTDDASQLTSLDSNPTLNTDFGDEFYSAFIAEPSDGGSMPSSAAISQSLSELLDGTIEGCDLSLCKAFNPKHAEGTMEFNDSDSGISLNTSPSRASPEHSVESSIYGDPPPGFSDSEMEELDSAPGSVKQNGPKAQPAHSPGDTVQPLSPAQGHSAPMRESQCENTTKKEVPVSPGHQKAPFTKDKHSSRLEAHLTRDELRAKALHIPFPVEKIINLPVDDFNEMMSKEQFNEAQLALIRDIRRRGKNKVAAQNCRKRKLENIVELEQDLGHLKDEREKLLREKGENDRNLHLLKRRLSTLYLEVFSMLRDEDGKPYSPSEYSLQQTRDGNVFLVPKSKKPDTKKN

[4] = biological target: T1, Nuclear factor erythroid 2-related factor 2 (Mus musculus); assay: Activation of Nrf2 in LPS-stimulated mouse AML12 cells assessed as upregulation of GCLM protein level incubated for 16 hrs by Western blot analysis; assay type: cell-based; conditions: filed as activator, dose 0.5-10 µM
Mus musculus [5] = assay: Hepatoprotective activity in APAP-induced Nrf2 knockout male C57BL/6 mouse model of acute liver injury assessed as effect on AST level in liver at 25 mg/kg, ip preadministered with compound followed by APAP induction and measured after 12 hrs; assay type: functional, organism-based
Mus musculus [6] = assay: In vivo inhibition of Keap1/Nrf2 protein-protein interaction in APAP-induced male C57BL/6 mouse model of acute liver injury administered intraperitoneally and measured after 12 hrs by co-immunoprecipitation analysis; assay type: functional, organism-based; conditions: dose 12.5-25 mg/kg, route ip
[7] = Cmax in Sprague-Dawley rat at 1 mg/kg, iv; assay type: ADME, organism-based; conditions: in vivo
Mus musculus [8] = assay: Anti-inflammatory activity in APAP-induced C57BL/6 mouse model of acute liver injury assessed as reduction in IL-6 mRNA level in liver at 12.5 to 25 mg/kg, ip measured after 12 hrs by ELISA; assay type: functional, organism-based; conditions: dose 12.5-25 mg/kg
[9] = biological target: T1, Nuclear factor erythroid 2-related factor 2 (Mus musculus); assay: Activation of Nrf2 in LPS-stimulated mouse AML12 cells assessed as upregulation of GCLM mRNA expression incubated for 16 hrs by RT-qPCR analysis; assay type: cell-based; conditions: filed as activator, dose 0.5-10 µM
[10] = biological target: T1, Nuclear factor erythroid 2-related factor 2 (Mus musculus); assay: Activation of Nrf2 in LPS-stimulated mouse AML12 cells assessed as upregulation of GCLM mRNA expression by measuring fold change at 10 uM incubated for 16 hrs relative to sulforaphane; assay type: cell-based; conditions: filed as activator
Mus musculus [11] = assay: Anti-inflammatory activity against APAP-induced male C57BL/6 mouse model of acute liver injury assessed as restoration of GCLM protein level in liver at 12.5 to 25 mg/kg, ip measured after 12 hrs by Western blot analysis; assay type: functional, organism-based; conditions: dose 12.5-25 mg/kg
[12] = AUC (0 to t) last in Sprague-Dawley rat at 10 mg/kg, po; assay type: ADME, organism-based; conditions: in vivo
[13] = Drug concentration in plasma of APAP-induced acute liver injury male C57BL/6 mouse model at 12.5 mg/kg, ip pre-administered with compound for 1 hr followed by APAP induction and measured after 12 hrs by Mass spectrometric analysis; assay type: ADME, organism-based
[14] = Toxicity in C57BL/6J mouse assessed as histopathological change in splenic tissue at 25 mg/kg, ip by H and E staining based analysis; assay type: organism-based; conditions: in vivo
[15] = biological target: T1, Nuclear factor erythroid 2-related factor 2 (Mus musculus); assay: Activation of Nrf2 in LPS-stimulated mouse AML12 cells assessed as upregulation of Nrf2 protein level incubated for 16 hrs by Western blot analysis; assay type: cell-based; conditions: filed as activator, dose 0.5-10 µM
[16] = biological target: T1, Nuclear factor erythroid 2-related factor 2 (Mus musculus); assay: Activation of Nrf2 in LPS-stimulated mouse AML12 cells assessed as upregulation of HO-1 mRNA expression incubated for 16 hrs by RT-qPCR analysis; assay type: cell-based; conditions: filed as activator, dose 0.5-10 µM
[17] = biological target: T1, Nuclear factor erythroid 2-related factor 2 (Mus musculus); assay: Activation of Nrf2 in LPS-stimulated mouse AML12 cells assessed as upregulation of Akr1c1 mRNA expression by measuring fold change at 10 uM incubated for 16 hrs relative to sulforaphane; assay type: cell-based; conditions: filed as activator
Mus musculus [18] = assay: Anti-inflammatory activity in APAP-induced C57BL/6 mouse model of acute liver injury assessed as reduction in IL-6 level in serum at 12.5 to 25 mg/kg, ip measured after 12 hrs by ELISA; assay type: functional, organism-based; conditions: dose 12.5-25 mg/kg
Mus musculus [19] = assay: Anti-inflammatory activity against APAP-induced male C57BL/6 mouse model of acute liver injury assessed as upregulation of GCLM mRNA level in liver administered intraperitoneally and measured after 12 hrs by RT-qPCR analysis; assay type: functional, organism-based; conditions: dose 12.5-25 mg/kg, route ip
Mus musculus [20] = assay: Hepatoprotective activity in APAP-induced male C57BL/6 mouse model of acute liver injury assessed as reduction in cell apoptosis in liver at 12.5 to 25 mg/kg, ip measured after 12 hrs by TUNEL assay; assay type: functional, organism-based; conditions: dose 12.5-25 mg/kg
Mus musculus [21] = assay: Anti-inflammatory activity in APAP-induced C57BL/6 mouse model of acute liver injury assessed as reduction in macrophage aggregation in liver at 12.5 to 25 mg/kg, ip measured after 12 hrs by F4/80 staining based analysis; assay type: functional, organism-based; conditions: dose 12.5-25 mg/kg
[22] = Drug concentration in plasma of APAP-induced acute liver injury male C57BL/6 mouse model at 25 mg/kg, ip pre-administered with compound for 1 hr followed by APAP induction and measured after 12 hrs by Mass spectrometric analysis; assay type: ADME, organism-based
[23] = Tmax in Sprague-Dawley rat at 10 mg/kg, po; assay type: ADME, organism-based; conditions: in vivo
Mus musculus [24] = assay: Hepatoprotective activity in APAP-induced male C57BL/6 mouse model of acute liver injury assessed as attenuation of nitric oxide (NO) level in liver at 12.5 to 25 mg/kg, ip measured after 12 hrs; assay type: functional, organism-based; conditions: dose 12.5-25 mg/kg
Mus musculus [25] = assay: Anti-inflammatory activity in APAP-induced Nrf2 knockout male C57BL/6 mouse model of acute liver injury assessed as increase in MPO positive cells in liver at 25 mg/kg, ip preadministered with compound followed by APAP induction and measured after 12 hrs by staining based analysis; assay type: functional, organism-based
[26] = Tmax in Sprague-Dawley rat at 1 mg/kg, iv; assay type: ADME, organism-based; conditions: in vivo
[27] = Absolute oral bioavailability in Sprague-Dawley rat at 10 mg/kg; assay type: ADME, organism-based; conditions: in vivo

## COc1ccc(-c2cc(=O)c3ccc(NS(=O)(=O)c4ccc(F)cc4)cc3o2)cc1
Mus musculus [1]
  Activity: Active
Mus musculus [2]
  Activity: inactive
[3]
  Activity: Dose-dependent-effect
[4]
  Activity: Dose-dependent-effect
Mus musculus [5]
  Activity: No effect
Mus musculus [6]
  inhibition: Dose-dependent-effect
[7]
  Cmax: 1050 ng/mL
Mus musculus [8]
  Activity: Active
[9]
  Activity: Dose-dependent-effect
[10]
  fold change (FC): 2.3
Mus musculus [11]
  Activity: Active
[12]
  AUC(0-t): 7690 ng·h/mL
[13]
  concentration at 13 h: 50 ng/mL
[14]
  Activity: Non-toxic
[15]
  Activity: Dose-dependent-effect
[16]
  Activity: Dose-dependent-effect
[17]
  fold change (FC): 1.8
Mus musculus [18]
  Activity: Active
Mus musculus [19]
  Activity: Dose-dependent-effect
Mus musculus [20]
  Activity: Active
Mus musculus [21]
  Activity: Active
[22]
  concentration at 13 h: 155 ng/mL
[23]
  Tmax: 90 min
Mus musculus [24]
  Activity: Active
Mus musculus [25]
  Activity: inactive
[26]
  Tmax: 10.2 min
[27]
  bioavailability: 19.9%
